Experimental findings from PMC5144078, “Bifidobacterium breve UCC2003 metabolises the human milk oligosaccharides lacto-N-tetraose and lacto-N-neo-tetraose through overlapping, yet distinct pathways” (Scientific Reports, 2016) are described below.

Holding throughout (assay): HPAEC-PAD product analysis
Test [1] has as its target T1, NahA (NahAHis) (Bifidobacterium breve, UniProt D4BR02).
T1 construct: gene BIFBRE_04532; GH20 beta-N-acetylhexosaminidase; N-terminal His10 tag; gene of 660 codons; expressed in Lactococcus lactis NZ9000
Format: biochemical. To be noted: MOPS pH 7.0, 37 °C; lacto-N-triose made in situ from LNT or LNnT by LntA, LntA heat-denatured before NahA addition.

The target in test [2] is T2, LntA (LntAHis) (Bifidobacterium breve, UniProt D4BMY8).
T2 construct: gene BIFBRE_03435; GH42 beta-galactosidase; purified His-tagged protein
Format: biochemical. To be noted: 20 mM MOPS pH 7.0, 37 °C, 24 h, 1 mg/ml substrate.

Test [3] has as its target T3, LacZ6 (LacZ6His) (Bifidobacterium breve, UniProt D4BR09).
T3 construct: gene BIFBRE_04539
To be noted: 20 mM MOPS pH 7.0, 37 °C, 24 h, 1 mg/ml substrate.

T2 sequence (D4BMY8 1-691): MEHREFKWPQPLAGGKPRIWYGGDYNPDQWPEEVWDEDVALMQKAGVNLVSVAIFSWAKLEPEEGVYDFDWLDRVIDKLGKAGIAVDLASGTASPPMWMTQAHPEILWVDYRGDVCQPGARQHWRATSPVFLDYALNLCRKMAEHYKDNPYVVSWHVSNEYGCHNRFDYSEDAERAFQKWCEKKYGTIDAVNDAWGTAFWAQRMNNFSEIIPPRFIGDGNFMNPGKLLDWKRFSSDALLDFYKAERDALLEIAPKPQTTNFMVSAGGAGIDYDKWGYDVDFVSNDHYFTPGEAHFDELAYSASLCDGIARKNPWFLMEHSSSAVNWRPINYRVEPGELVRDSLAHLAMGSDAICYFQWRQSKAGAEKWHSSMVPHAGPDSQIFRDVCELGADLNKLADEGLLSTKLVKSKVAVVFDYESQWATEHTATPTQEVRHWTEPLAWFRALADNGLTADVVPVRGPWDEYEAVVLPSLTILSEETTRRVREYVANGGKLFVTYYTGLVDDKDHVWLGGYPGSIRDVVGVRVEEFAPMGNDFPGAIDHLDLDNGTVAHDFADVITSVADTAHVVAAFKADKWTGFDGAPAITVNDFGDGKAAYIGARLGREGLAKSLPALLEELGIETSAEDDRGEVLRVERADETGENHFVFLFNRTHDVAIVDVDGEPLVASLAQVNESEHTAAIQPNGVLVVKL
T3 sequence (D4BR09 1-1045): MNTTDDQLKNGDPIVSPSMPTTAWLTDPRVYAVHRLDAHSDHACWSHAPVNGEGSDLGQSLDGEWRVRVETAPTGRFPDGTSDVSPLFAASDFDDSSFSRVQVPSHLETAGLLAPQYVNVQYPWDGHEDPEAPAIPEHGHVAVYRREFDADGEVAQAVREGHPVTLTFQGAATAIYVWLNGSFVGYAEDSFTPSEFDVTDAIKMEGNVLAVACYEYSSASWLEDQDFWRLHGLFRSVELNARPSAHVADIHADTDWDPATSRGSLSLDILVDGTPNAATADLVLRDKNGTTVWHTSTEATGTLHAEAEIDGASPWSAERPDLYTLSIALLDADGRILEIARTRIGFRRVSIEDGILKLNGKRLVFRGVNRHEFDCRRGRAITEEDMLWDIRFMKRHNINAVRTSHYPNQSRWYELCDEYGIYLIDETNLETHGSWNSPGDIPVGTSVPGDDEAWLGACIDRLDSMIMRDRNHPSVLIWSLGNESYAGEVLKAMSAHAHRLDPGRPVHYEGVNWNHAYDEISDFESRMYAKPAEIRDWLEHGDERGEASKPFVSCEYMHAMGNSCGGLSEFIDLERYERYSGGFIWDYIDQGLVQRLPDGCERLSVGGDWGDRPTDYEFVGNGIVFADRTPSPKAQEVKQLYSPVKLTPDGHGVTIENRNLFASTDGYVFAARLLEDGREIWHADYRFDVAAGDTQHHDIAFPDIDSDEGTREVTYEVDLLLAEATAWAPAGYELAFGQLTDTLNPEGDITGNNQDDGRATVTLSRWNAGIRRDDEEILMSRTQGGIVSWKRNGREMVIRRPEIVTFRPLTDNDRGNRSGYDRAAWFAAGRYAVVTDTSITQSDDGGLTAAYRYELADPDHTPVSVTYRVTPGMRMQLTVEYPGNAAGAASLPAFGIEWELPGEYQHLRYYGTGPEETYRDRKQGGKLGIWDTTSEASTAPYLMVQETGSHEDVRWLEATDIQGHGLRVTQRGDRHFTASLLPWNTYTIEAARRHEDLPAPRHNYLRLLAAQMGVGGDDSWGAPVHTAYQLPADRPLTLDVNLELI
T1 sequence (D4BR02 entry or part of it): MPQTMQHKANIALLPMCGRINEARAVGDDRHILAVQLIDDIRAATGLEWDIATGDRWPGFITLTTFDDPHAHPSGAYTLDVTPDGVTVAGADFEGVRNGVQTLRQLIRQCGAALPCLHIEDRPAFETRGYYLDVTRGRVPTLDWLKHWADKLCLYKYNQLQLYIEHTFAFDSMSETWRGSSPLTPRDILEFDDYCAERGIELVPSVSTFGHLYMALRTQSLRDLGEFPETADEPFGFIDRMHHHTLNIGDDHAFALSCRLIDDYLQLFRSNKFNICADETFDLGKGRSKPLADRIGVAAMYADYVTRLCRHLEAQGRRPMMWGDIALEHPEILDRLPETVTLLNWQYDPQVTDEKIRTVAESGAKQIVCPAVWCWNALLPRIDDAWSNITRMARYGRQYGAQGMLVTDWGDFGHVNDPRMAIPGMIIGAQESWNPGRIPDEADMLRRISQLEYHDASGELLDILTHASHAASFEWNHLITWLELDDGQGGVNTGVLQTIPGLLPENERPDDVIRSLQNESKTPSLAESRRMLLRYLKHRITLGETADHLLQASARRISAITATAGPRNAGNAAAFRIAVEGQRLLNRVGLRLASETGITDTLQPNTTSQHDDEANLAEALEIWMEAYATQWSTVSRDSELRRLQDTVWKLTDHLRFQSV

`CC(=O)N[C@H]1[C@H](O[C@H]2[C@@H](O)[C@@H](CO)O[C@@H](O[C@H]3[C@H](O)[C@@H](O)C(O)O[C@@H]3CO)[C@@H]2O)O[C@H](CO)[C@@H](O)[C@@H]1O` (stereo partly shown) [lacto-N-triose]: the HPAEC-PAD product analysis entry in test [1] was “Lacto-N-triose is then hydrolysed by NahA, liberating Lactose and GlcNAc”.

On to `CC(=O)N[C@H]1[C@H](O[C@H]2[C@@H](O)[C@@H](CO)O[C@@H](O[C@H]3[C@H](O)[C@@H](O)C(O)O[C@@H]3CO)[C@@H]2O)O[C@H](CO)[C@@H](O)[C@@H]1O[C@@H]1O[C@H](CO)[C@H](O)[C@H](O)[C@H]1O` (stereo partly shown) [LNT, lacto-N-tetraose], for which the HPAEC-PAD product analysis entry in test [2] is recorded as “Purified LntAHis was shown to remove the galactose moiety at the non-reducing end”.

Regarding `CC(=O)N[C@H]1[C@H](O[C@H]2[C@@H](O)[C@@H](CO)O[C@@H](O[C@H]3[C@H](O)[C@@H](O)C(O)O[C@@H]3CO)[C@@H]2O)O[C@H](CO)[C@@H](O[C@@H]2O[C@H](CO)[C@H](O)[C@H](O)[C@H]2O)[C@@H]1O` (stereo partly shown) [LNnT, lacto-N-neotetraose], the HPAEC-PAD product analysis result in test [2] was “Purified LntAHis was capable of removing the galactose moiety at the non-reducing end of LNnT”; in test [3], “Purified LacZ2His and LacZ6His were, under the conditions applied, also capable of hydrolysing LNnT”.
